Entries after “also recorded” stand apart in the source; their conditions may differ.
Legend:
[1] = test system: HIV-1 mutant strain F227L + V106A; test: microbe, parasite or virus in culture; format: cell-based; settings: Human immunodeficiency virus 1, MT4, read-out: EC50 F227L + V106A
SPF Kunming mice [2] = test: Subacute toxicity experiment in mice; format: in vivo
[3] = Cytotoxicity in mock-infected MT-4 cells, MTT method; format: cell-based; settings: human, mock-infected MT-4 cells, CC50, mock-infected MT-4 cells
MT-4 cells = test: as above; format: cell-based
[4] = test system: HIV-1 mutant strain Y181C; test: microbe, parasite or virus in culture; format: cell-based; settings: Human immunodeficiency virus 1, MT4, read-out: EC50 Y181C
[5] = test system: HIV-1 mutant strain E138K; test: microbe, parasite or virus in culture; format: cell-based; settings: Human immunodeficiency virus 1, MT4, read-out: EC50 E138K
HIV-1 WT strain (IIIB) = test: Anti-HIV activity against WT HIV-1; settings: for selectivity index, times higher than that of IAS-0: WT HIV-1
[6] = test system: HIV-1 mutant strain K103N; test: microbe, parasite or virus in culture; format: cell-based; settings: Human immunodeficiency virus 1, MT4, read-out: EC50 K103N
SPF Kunming mice [7] = test: Acute toxicity experiment in mice; format: in vivo; settings: 7 days
[8] = test system: HIV-1 mutant strain Y188L; test: microbe, parasite or virus in culture; format: cell-based; settings: Human immunodeficiency virus 1, MT4, read-out: EC50 Y188L
[9] = test system: HIV-1 mutant strain L100I; test: microbe, parasite or virus in culture; format: cell-based; settings: Human immunodeficiency virus 1, MT4, read-out: EC50 L100I
[10] = In vivo pharmacokinetics study in rats; settings: male, Sprague-Dawley, rat, plasma
[11] = test system: HIV-1 mutant strain RES056 (K103N + Y181C); test: microbe, parasite or virus in culture; format: cell-based; settings: Human immunodeficiency virus 1, MT4, read-out: EC50 RES056

Cc1cc(C)cc(S(=O)(=O)c2c(C(=O)NCCCCNS(=O)(=O)c3cccnc3)[nH]c3ccc(Cl)cc23)c1 [R10L4, 5-Chloro-3-((3,5-dimethylphenyl)sulfonyl)-N-(4-(pyridine-3-sulfonamido)butyl)-1H-indole-2-carboxamide]
EC50 [1]: 0.087 ± 0.035 µM | mortality or behavior changes, subacute toxicity (SPF Kunming mice [2]; 50 mg/kg p.o., 12 days): no remarkable in vivo toxic effects; also recorded: did not lead to any mortality or observable behavior changes | body weight, subacute toxicity (SPF Kunming mice [2]; 50 mg/kg, 12 days, compared with blank group): only insignificant body weight loss was seen | pathology of hematoxylin and eosin-stained slices from vital organs (SPF Kunming mice [2]; end of subacute toxicity test, heart, liver, spleen, lung, kidney): no marked pathological abnormalities | CC50 at 5 days [3]: 216 µM | fold decrease in cytotoxicity compared to IAS-0 (MT-4 cells; CC50, MT-4 cells): ~40 fold | CC50 (MT-4 cells; mock-infected MT-4 cells): 216.5 ± 0.52 µM | EC50 [4]: 0.045 ± 0.01 µM | EC50 [5]: 0.017 ± 0.007 µM | selectivity index, times higher than that of IAS-0 (HIV-1 WT strain (IIIB)): ~14 times | SI IIIB (CC50/EC50 ratio) (HIV-1 WT strain (IIIB); WT HIV-1 IIIB): 30,930 | EC50 [6]: 0.068 ± 0.012 µM | mortality or behavior changes, acute toxicity (SPF Kunming mice [7]; 800 mg/kg intragastric): no remarkable in vivo toxic effects; also recorded: did not lead to any mortality or observable behavior changes | body weight, acute toxicity (SPF Kunming mice [7]; 800 mg/kg, compared with blank group): only insignificant body weight loss was seen | EC50 [8]: 0.54 ± 0.087 µM | EC50 [9]: 0.017 ± 0.002 µM | AUC(0-inf) ([10]; iv, 2 mg/kg): 481 ± 63.3 ng·h/mL | AUC(0-t) ([10]; iv, 2 mg/kg): 472 ± 63.4 ng·h/mL | MRT inf ([10]; iv, 2 mg/kg): 1.45 ± 0.09 h | Tmax ([10]; iv, 2 mg/kg): 0.083 h | clearance ([10]; iv, 2 mg/kg): 70.2 mL/min/kg | half-life ([10]; iv, 2 mg/kg): 1.61 ± 0.04 h | Cmax ([10]; iv, 2 mg/kg, i.v. 2 mg/kg): 657 ± 99.2 ng/mL | bioavailability ([10]; oral, 10 mg/kg): 8.5% | AUC(0-inf) ([10]; po, 10 mg/kg): 203 ± 38.4 ng·h/mL | AUC(0-t) ([10]; po, 10 mg/kg): 199 ± 38.7 ng·h/mL | MRT inf ([10]; po, 10 mg/kg): 2.27 ± 0.05 h | Tmax ([10]; po, 10 mg/kg): 0.83 ± 0.15 h | half-life ([10]; po, 10 mg/kg): 1.78 ± 0.25 h | Cmax ([10]; po, 10 mg/kg, p.o. 10 mg/kg): ≤ 80 ng/mL | EC50 [11]: 5.26 µM

Cc1cc(C)cc(S(=O)(=O)c2c(C(=O)NCCCNS(=O)(=O)c3ccccc3F)[nH]c3ccc(Cl)cc23)c1 [R11L3, 5-Chloro-3-((3,5-dimethylphenyl)sulfonyl)-N-(3-((2-fluorophenyl)sulfonamido)propyl)-1H-indole-2-carboxamide]
EC50 [1]: 0.88 ± 0.52 µM | CC50 at 5 days [3]: 192 ± 4.99 µM | EC50 [4]: 0.61 ± 0.14 µM | EC50 [5]: 0.068 ± 0.002 µM | SI IIIB (CC50/EC50 ratio) (HIV-1 WT strain (IIIB); WT HIV-1 IIIB): 12,570 | EC50 [6]: 0.28 ± 0.035 µM | EC50 [8]: 7.12 ± 0.76 µM | EC50 [9]: 0.16 ± 0.078 µM | EC50 [11]: 12.8 ± 10.1 µM

Cc1cc(C)cc(S(=O)(=O)c2c(C(=O)NCCCCNS(=O)(=O)c3ccccc3F)[nH]c3ccc(Cl)cc23)c1 [R11L4, 5-Chloro-3-((3,5-dimethylphenyl)sulfonyl)-N-(4-((2-fluorophenyl)sulfonamido)butyl)-1H-indole-2-carboxamide]
EC50 [1]: 0.29 ± 0.034 µM | CC50 at 5 days [3]: 189.5 ± 1.32 µM | EC50 [4]: 0.2 ± 0.017 µM | EC50 [5]: 0.036 ± 0.005 µM | SI IIIB (CC50/EC50 ratio) (HIV-1 WT strain (IIIB); WT HIV-1 IIIB): 20,621 | EC50 [6]: 0.17 ± 0.017 µM | EC50 [8]: 1.74 ± 0.32 µM | EC50 [9]: 0.063 ± 0.025 µM | EC50 [11]: > 190 µM

Cc1cc(C)cc(S(=O)(=O)c2c(C(=O)NCCNS(=O)(=O)c3cccc(F)c3)[nH]c3ccc(Cl)cc23)c1 [R12L2, 5-Chloro-3-((3,5-dimethylphenyl)sulfonyl)-N-(2-((3-fluorophenyl)sulfonamido)ethyl)-1H-indole-2-carboxamide]
EC50 [1]: 2.26 ± 0.55 µM | CC50 at 5 days [3]: 187 ± 4.81 µM | EC50 [4]: 0.55 ± 0.089 µM | EC50 [5]: 0.44 ± 0.11 µM | SI IIIB (CC50/EC50 ratio) (HIV-1 WT strain (IIIB); WT HIV-1 IIIB): 5151 | EC50 [6]: 0.5 ± 0.089 µM | EC50 [8]: 3.3 ± 0.3 µM | EC50 [9]: 0.46 ± 0.18 µM | EC50 [11]: 4.94 ± 1.24 µM

Cc1cc(C)cc(S(=O)(=O)c2c(C(=O)NCCCNS(=O)(=O)c3cccc(F)c3)[nH]c3ccc(Cl)cc23)c1 [R12L3, 5-Chloro-3-((3,5-dimethylphenyl)sulfonyl)-N-(3-((3-fluorophenyl)sulfonamido)propyl)-1H-indole-2-carboxamide]
EC50 [1]: 0.99 ± 0.14 µM | CC50 at 5 days [3]: 204 ± 10.8 µM | EC50 [4]: 0.75 ± 0.21 µM | EC50 [5]: 0.11 ± 0.043 µM | SI IIIB (CC50/EC50 ratio) (HIV-1 WT strain (IIIB); WT HIV-1 IIIB): 5799 | EC50 [6]: 0.45 ± 0.12 µM | EC50 [8]: 3.38 ± 0.45 µM | EC50 [9]: 0.26 ± 0.087 µM | EC50 [11]: 4.73 ± 1.04 µM

Cc1cc(C)cc(S(=O)(=O)c2c(C(=O)NCCCCNS(=O)(=O)c3cccc(F)c3)[nH]c3ccc(Cl)cc23)c1 [R12L4, 5-Chloro-3-((3,5-dimethylphenyl)sulfonyl)-N-(4-((3-fluorophenyl)sulfonamido)butyl)-1H-indole-2-carboxamide]
EC50 [1]: 0.24 ± 0.034 µM | CC50 at 5 days [3]: 186 ± 12.5 µM | EC50 [4]: 0.19 ± 0.034 µM | EC50 [5]: 0.049 ± 0.012 µM | SI IIIB (CC50/EC50 ratio) (HIV-1 WT strain (IIIB); WT HIV-1 IIIB): 10,126 | EC50 [6]: 0.24 ± 0.068 µM | EC50 [8]: 1.45 ± 0.41 µM | EC50 [9]: 0.063 ± 0.017 µM | EC50 [11]: > 173 µM

Cc1cc(C)cc(S(=O)(=O)c2c(C(=O)NCCNS(=O)(=O)C3CC3)[nH]c3ccc(Cl)cc23)c1 [R13L2, 5-Chloro-N-(2-(cyclopropanesulfonamido)ethyl)-3-((3,5-dimethylphenyl)sulfonyl)-1H-indole-2-carboxamide]
EC50 [1]: 0.51 ± 0.12 µM | CC50 at 5 days [3]: 172 ± 6.91 µM | EC50 [4]: 0.18 ± 0.057 µM | EC50 [5]: 0.055 ± 0.016 µM | selectivity index, times higher than that of IAS-0 (HIV-1 WT strain (IIIB)): ~14 times | SI IIIB (CC50/EC50 ratio) (HIV-1 WT strain (IIIB); WT HIV-1 IIIB): 41,951 | EC50 (HIV-1 WT strain (IIIB); read-out: EC50 IIIB, WT HIV-1 IIIB, MT-4 cells): 0.0041 ± 0.00079 µM | EC50 [6]: 0.11 ± 0.02 µM | EC50 [8]: 1.65 ± 0.39 µM | EC50 [9]: 0.053 ± 0.022 µM | EC50 [11]: 32.6 ± 7.96 µM

Cc1cc(C)cc(S(=O)(=O)c2c(C(=O)NCCNS(=O)(=O)c3ccc(-c4ccccc4)cc3)[nH]c3ccc(Cl)cc23)c1 [R14L2, N-(2-([1,1′-Biphenyl]-4-sulfonamido)ethyl)-5-chloro-3-((3,5-dimethylphenyl)sulfonyl)-1H-indole-2-carboxamide]
EC50 [1]: 2.99 ± 0.68 µM | CC50 at 5 days [3]: 64.3 ± 11.2 µM | EC50 [4]: 1.42 ± 0.37 µM | EC50 [5]: 0.74 ± 0.097 µM | SI IIIB (CC50/EC50 ratio) (HIV-1 WT strain (IIIB); WT HIV-1 IIIB): 317 | EC50 [6]: 1.19 ± 0.26 µM | EC50 [8]: > 31.2 µM | EC50 [9]: 0.95 ± 0.097 µM | EC50 [11]: > 82.4 µM
